Measured values: patent US11684598B2, “Use of cannabinoids in the treatment of epilepsy” (priority 2015, dated 2023)
pIC50: −log10 of the molar value. Read-outs that look alike come from different tables or passages of the source.

What was measured:
[1] = test system: D. discoideum development; experiment: D. discoideum development assay; type: cell-based, Dictyostelium discoideum
Procedure: Wild type (A×2) D. discoideum cells were grown in HL5 shaking culture for two days prior to development assay. Cells were washed in phosphate buffer (KK2; 20 mM Potassium phosphate buffer, pH 6.1), and 1×10^7 cells were spread onto nitrocellulose filters (Millipore, Cork). Absorbent pads (Millipore, Cork), divided into quarters, were placed in 2 ml culture dishes and soaked with 0.5 ml KK2 containing the cannabinoids at 20 μM. 1 mM Valproic acid was used as a positive control while KK2 containing 1% DMSO was used as a solvent only control. Nitrocellulose filters containing cells were quartered and place upon absorbent pads and maintained in a humid environment at 22° C. for 24 h. Fruiting body morphology was recorded using a dissection microscope and camera.

[2] = test system: PTZ-induced generalised seizures; experiment: Acute PTZ-induced model of generalised seizure; type: in vivo, rat
Procedure: Adult male Wistar Kyoto rats were used in the acute PTZ model of seizure (>P24, 70-110 g). Animals were housed five per cage in a heat regulated room (21° C.) on a 12:12 h day/night cycle (lights on 0800) in 50% humidity and given ad libitum access to standard laboratory chow (PCD Mod C, Special Diet Services, Wiltham, UK) and water. All procedures were undertaken during white light hours.
(§1) A PTZ (Sigma-Aldrich, Poole, UK) stock solution was made in 0.9% w/v NaCl for the experimental procedure.
PTZ antagonises GABA inhibition via binding to the t-butyl-bicycl-phosphorothionate site of GABAA receptors. Moreover, this chemically-induced model can be indicative of effects against absence seizures. PTZ (90 mg/kg) was used to induce seizures in adult male Wistar rats (n=15 per group) with experiment dose randomised using a Latin square design. Animals were placed in their 6 L Perspex tanks and allowed to acclimatise to their environment for 10 min, before receiving one of the cannabinoid doses (see Table 5) in vehicle, or volume-matched dose of vehicle alone to serve as a negative control. 60 min after test compound or vehicle administration, animals were injected with PTZ (90 mg/kg, i.p.) to induce seizures and animal behaviour was recorded for 30 min.
Videos of PTZ-induced seizures were scored offline with a standard seizure severity scale appropriate for generalised seizures (Table 6).
Videos of seizure behaviour generated from the custom built observational system were scored offline according to seizure scales appropriate for PTZ model (Table 6) using Observer Video-Pro software (Noldus, Wageningen, The Netherlands). For the PTZ model of seizure, intra- and inter-observer agreements of behaviour scoring were assessed using the reliability analysis function of the observer Video-Pro software: 1 s tolerance window; Cohen's Kappa coefficient≥0.95.
Specific markers of seizure behaviour and development were assessed and compared between vehicle control and drug groups. The latency (s) to seizure onset and the percentage of animals that developed tonic-clonic seizures was noted (see Table 6). In addition, the maximum seizure severity and the percentage mortality in each group were determined for the acute PTZ model of generalised seizure.
The effect of drug on latency to seizure onset and maximum seizure severity were assessed using Krustal-Wallis with post-hoc Mann-Whitney U-tests. Drug effects on the percentage of animals that developed tonic-clonic seizures and percentage mortality were assessed using Chi-squared with post-hoc Fisher exact tests. In all cases, P≤0.05 was considered significant.

[3] = test system: D. discoideum cell growth; experiment: D. discoideum growth assay; type: cell-based, Dictyostelium discoideum
Procedure: Wild type (A×2) D. discoideum cells were grown in shaking culture (in HL5 medium) for two days prior to growth assays. Cells (9900 in 495 μl of media) were added to each well of a 24 well plate and 5 μl of cannabinoid in DMSO (or DMSO only) was added to each well to achieve each described concentration (1% final DMSO concentration), and cells were maintained at 22° C. Cells were counted at 72 hours, and then every 24 hours. Quadruplicate repeats were used for each concentration.

[4] = test system: D. discoideum growth upon R. planticola bacterial plates; experiment: Bacterial plate screen; type: cell-based, Dictyostelium discoideum; conditions: CBDA 12.3 μM, CBD 16.7 μM; 4 days
Procedure: Heat killed (75° C. for 30 minutes) R. planticola was spread onto the plates and ˜50 wild-type A×2 cells were added and left to grow at 22° C. Plates were checked regularly for colonies.

[5] = Formulation analysis (decarboxylation of CBDA to CBD); type: physicochemical; conditions: 2:1:17 vehicle of ethanol, cremophor and saline
Excerpt: as §1
Formulation analysis was undertaken to determine whether CBDA decarboxylated to CBD because of temperature and/or the excipients in the formulation. […] Therefore, CBDA was not modified during formulation, and a 2:1:17 ratio can be used in future investigations for this phytocannabinoid.

[6] = Toxicokinetics from toxicological studies in dogs, daily oral (gavage) administration; type: in vivo, dog; conditions: dog, plasma, po, 100 mg/kg, Day 1, mean; for AUC0-t: read-out: AUC0-t; for Cmax: read-out: Cmax
Procedure: Samples were taken from the jugular vein into lithium heparin. Samples were mixed gently by hand then continuously for at least 2 minutes on automatic mixer and placed in a Kryorack until centrifugation, which was carried out at approximately 4° C. as soon as practicable. The resultant plasma was separated under low light conditions, transferred to uniquely labelled clear glass vials, placed in light proof boxes and frozen immediately at <−50° C.

[7] = female, comparative Table 11, females
[8] = male, comparative Table 10, males

| Compound | effect on development (fruiting body morphology) ([1]; 1 mM, positive control, 24 h) | effect on percentage mortality ([2]; 100 mg/kg CBD (P≤0.01), 100 mg/kg CBDA (P=0.0656), CBD/CBDA ratio (P=0.0656)) | effect on latency to seizure onset ([2]; 100 mg/kg CBD (P≤0.05), CBD/CBDA 9:1 (P≤0.05), CBDA 100 mg/kg (P=0.0929)) | median score for the maximum seizure severity ([2]; 100 mg/kg, PTZ 90 mg/kg i.p. 60 min after compound, scale of Table 6, n=15) | effect on incidence of tonic-clonic seizures ([2]; 100 mg/kg, P≤0.1) | effect on seizure severity vs vehicle control ([2]; CBDA 100 mg/kg, CBD/CBDA 9:1 ratio (90/10 mg/kg), P≤0.05) | pIC50 ([3]; Dictyostelium discoideum, 168 h, read-out: growth inhibitory constant (IC50)) | concentration blocking growth ([3]; growth over one week) [µM] | concentration significantly inhibiting cell growth (P<0.05) ([3]; growth over one week) [µM] | effect on development (fruiting body morphology) ([1]; 20 μM, 24 h on nitrocellulose filter) | cell survival (colony number) compared to control (solvent only) [4] | conversion of CBDA to CBD during formulation [5] | AUC0-t [6, 7] [µg·h/mL] | Cmax [6, 7] [ng/mL] | AUC0-t [6, 8] [µg·h/mL] | Cmax [6, 8] [ng/mL] |
| --- | --- | --- | --- | --- | --- | --- | --- | --- | --- | --- | --- | --- | --- | --- | --- | --- |
| CCCC(CCC)C(=O)O [valproic acid] | able to aggregate but unable to undergo development to form fruiting bodies |  |  |  |  |  |  |  |  |  |  |  |  |  |  |  |
| C=C(C)[C@@H]1CCC(C)=C[C@H]1c1c(O)cc(CCCCC)c(C(=O)O)c1O [CBDA, Cannabidiolic acid] |  | trend towards a significant reduction | trend towards increasing the latency to seizure onset | 3 | trend towards a reduction in tonic-clonic seizures | significant anti-convulsant effects | 6.52 | 20 | 0.08 | able to aggregate and develop to form mature fruiting bodies | No difference in colony number | not converted to CBD during formulation | 179 | 38600 | 80.5 | 24900 |
